From patent US9012443B2 (Amgen Inc., priority 2011, dated 2015)
Where two headings read alike, the source gives them in different places.

Tests used:
Assay type in all cases: cell-based
Nav 1.7 [1] = biological target: T1, Nav 1.7 (Homo sapiens (Human), UniProt Q15858); test: Nav 1.7 IWQ in vitro assay (IonWorks Quattro population patch-clamp); conditions: 293 cells stably transfected with Nav 1.7
How it was run: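 HEK293 cells stably expressing Nav 1.7, recorded by automated population patch-clamp with a train of depolarizations producing increasing inactivation. Single compound concentration added during 3–8 min unclamped period, then same protocol repeated. Leak-corrected current at 26th pulse to −20 mV gave percent block (duplicate); IC50 fitted from concentration–block curves.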

Nav 1.5 = Nav 1.5 (Homo sapiens (Human), UniProt Q14524); test: Nav 1.5 in vitro PX assay (PatchXpress whole cell voltage clamp)
How it was run: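 HEK293 cells stably expressing Nav 1.5, whole-cell voltage clamp held at −50 mV; 20 msec test pulses to 0 mV at 0.1 Hz, each preceded by a step to −120 mV.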

Nav 1.7 [2] = biological target: T1, Nav 1.7; test: Nav 1.7 in vitro PX assay (PatchXpress whole cell voltage clamp); conditions: 293 cells, human Nav1.7, partially inactivated state; read-out: Nav1.7 PX IC50 IP
How it was run: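 HEK293 cells stably expressing human Nav1.7, whole-cell voltage clamp on PatchXpress, held at potential giving 20–50% inactivation; current elicited by 20 msec pulse to −10 mV.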

[3] = first part of table, read-out: Nav 1.7 IWQ IC50
[4] = 293 cells stably transfected with Nav 1.5, first part of table, read-out: Nav 1.5 PX IC50
[5] = second part of table, read-out: Nav1.7 IWQ IC50 IP
[6] = 293 cells stably transfected with Nav 1.5, second part of table, read-out: Nav1.5 PX IC50

Chain of Nav 1.5 (Q14524 whole entry): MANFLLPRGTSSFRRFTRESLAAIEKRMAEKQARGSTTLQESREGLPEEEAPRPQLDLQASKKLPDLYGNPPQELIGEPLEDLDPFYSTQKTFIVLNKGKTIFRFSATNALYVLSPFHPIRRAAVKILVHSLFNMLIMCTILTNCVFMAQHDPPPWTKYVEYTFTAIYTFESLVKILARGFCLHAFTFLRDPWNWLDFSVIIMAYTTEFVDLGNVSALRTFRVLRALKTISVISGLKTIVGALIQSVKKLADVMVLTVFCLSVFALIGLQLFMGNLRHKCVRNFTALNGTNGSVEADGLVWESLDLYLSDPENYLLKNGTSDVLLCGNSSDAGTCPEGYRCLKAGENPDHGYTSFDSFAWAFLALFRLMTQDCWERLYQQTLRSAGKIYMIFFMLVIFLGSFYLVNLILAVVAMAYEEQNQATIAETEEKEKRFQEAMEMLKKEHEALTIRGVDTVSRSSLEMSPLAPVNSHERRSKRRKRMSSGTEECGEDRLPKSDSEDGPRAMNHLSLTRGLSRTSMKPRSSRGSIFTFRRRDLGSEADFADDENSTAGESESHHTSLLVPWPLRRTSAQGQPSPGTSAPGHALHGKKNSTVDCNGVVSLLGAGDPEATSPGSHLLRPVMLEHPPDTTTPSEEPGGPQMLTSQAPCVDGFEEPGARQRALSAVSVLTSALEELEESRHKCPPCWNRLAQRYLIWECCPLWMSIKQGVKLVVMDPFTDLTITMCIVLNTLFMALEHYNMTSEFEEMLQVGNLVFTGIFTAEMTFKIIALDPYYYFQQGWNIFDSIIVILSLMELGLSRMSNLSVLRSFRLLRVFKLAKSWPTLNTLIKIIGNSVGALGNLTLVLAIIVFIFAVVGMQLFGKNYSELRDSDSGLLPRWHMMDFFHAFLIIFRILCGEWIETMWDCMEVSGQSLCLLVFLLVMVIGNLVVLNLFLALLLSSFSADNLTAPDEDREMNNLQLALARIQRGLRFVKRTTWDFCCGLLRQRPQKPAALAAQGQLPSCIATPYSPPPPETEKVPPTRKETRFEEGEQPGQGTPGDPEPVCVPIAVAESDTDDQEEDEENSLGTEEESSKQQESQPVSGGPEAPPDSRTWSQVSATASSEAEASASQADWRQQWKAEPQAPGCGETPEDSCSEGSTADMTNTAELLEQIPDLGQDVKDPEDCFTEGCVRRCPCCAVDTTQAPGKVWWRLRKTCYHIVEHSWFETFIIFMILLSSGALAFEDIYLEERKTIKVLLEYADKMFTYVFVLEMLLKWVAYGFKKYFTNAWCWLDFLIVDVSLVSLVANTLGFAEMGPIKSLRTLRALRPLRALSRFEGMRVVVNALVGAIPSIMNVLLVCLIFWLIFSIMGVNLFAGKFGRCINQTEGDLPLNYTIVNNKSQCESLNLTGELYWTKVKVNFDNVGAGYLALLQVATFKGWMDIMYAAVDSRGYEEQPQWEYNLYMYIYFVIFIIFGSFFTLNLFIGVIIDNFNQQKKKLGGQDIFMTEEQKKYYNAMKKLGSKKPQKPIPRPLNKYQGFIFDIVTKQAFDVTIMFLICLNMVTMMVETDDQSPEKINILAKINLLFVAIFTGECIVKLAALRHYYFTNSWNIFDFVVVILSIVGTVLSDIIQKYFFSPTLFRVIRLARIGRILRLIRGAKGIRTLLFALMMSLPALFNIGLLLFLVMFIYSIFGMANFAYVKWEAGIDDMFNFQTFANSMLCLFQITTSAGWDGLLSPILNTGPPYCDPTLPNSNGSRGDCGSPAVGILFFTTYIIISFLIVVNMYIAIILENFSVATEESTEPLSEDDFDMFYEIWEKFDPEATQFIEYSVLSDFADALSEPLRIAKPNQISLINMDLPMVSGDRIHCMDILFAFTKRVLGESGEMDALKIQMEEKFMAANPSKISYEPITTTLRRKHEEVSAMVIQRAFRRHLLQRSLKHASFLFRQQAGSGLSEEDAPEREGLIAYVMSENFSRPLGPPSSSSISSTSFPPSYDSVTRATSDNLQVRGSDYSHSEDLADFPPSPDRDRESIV
T1 sequence (Q15858 whole entry): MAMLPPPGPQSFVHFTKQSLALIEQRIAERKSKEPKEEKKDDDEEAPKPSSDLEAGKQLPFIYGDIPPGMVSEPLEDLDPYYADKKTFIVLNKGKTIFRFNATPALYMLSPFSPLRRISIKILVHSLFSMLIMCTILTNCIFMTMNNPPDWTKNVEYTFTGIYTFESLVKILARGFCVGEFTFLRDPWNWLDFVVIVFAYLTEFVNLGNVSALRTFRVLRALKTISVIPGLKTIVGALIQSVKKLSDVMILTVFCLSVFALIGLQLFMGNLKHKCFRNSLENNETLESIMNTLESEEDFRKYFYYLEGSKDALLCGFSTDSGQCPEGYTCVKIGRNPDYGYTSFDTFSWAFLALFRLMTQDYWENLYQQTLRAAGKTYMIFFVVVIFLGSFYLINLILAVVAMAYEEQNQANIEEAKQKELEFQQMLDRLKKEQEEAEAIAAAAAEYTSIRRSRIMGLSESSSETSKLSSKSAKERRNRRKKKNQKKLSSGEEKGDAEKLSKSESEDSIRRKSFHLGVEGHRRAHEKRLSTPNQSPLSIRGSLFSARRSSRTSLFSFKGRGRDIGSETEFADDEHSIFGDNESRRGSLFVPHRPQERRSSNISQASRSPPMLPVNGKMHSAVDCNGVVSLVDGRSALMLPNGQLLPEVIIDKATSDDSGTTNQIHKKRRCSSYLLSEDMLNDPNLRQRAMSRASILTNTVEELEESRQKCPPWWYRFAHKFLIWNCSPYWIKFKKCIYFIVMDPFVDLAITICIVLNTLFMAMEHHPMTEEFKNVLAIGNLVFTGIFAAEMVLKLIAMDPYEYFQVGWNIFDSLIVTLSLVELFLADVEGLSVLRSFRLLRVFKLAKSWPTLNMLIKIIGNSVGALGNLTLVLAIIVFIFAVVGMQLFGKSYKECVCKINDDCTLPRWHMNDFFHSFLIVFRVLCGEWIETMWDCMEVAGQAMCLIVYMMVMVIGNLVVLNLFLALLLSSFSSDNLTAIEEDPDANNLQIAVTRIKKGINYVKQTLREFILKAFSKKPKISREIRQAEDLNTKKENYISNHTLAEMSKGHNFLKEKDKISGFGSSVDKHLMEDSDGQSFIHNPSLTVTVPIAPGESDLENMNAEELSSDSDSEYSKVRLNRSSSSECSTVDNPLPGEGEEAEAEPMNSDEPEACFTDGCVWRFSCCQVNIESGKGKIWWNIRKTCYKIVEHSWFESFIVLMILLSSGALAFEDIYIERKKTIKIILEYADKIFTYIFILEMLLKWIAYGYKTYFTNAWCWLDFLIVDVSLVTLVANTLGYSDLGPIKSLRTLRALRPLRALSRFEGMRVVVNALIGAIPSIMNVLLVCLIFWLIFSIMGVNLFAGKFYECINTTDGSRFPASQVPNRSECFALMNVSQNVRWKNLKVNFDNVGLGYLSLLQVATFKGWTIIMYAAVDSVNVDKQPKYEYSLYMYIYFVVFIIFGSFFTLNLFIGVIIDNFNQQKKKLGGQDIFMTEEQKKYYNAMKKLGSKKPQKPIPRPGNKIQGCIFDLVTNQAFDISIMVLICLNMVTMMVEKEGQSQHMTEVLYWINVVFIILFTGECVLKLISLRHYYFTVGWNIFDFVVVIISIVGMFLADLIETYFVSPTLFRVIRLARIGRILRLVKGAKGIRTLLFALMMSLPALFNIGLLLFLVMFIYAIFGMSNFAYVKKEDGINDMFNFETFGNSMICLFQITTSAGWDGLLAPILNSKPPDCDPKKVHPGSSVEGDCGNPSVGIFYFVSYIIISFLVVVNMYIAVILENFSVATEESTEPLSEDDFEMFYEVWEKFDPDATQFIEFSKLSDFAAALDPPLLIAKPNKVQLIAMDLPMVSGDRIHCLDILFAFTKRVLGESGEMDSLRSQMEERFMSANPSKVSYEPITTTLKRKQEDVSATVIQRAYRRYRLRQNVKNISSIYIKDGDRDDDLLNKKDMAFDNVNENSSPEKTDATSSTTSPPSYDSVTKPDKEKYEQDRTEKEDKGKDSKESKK

CCOc1cc(C(F)(F)F)ccc1-c1cccc2cc(S(=O)(=O)Nc3ncns3)ccc12 [Example 10] showed an IC50 (Nav 1.7 [1]; [3]) of 50 nM and an IC50 (Nav 1.5; [4]) of 6680 nM.
In the case of O=S(=O)(Nc1ncns1)c1ccc2c(-c3ccc(Cl)cc3-c3ccncc3)cccc2c1 [Example 28], the IC50 (Nav 1.7 [1]; [3]) is reported as 50 nM and the IC50 (Nav 1.5; [4]) is reported as greater than 30000 nM.
With O=S(=O)(Nc1ncns1)c1ccc2c(-c3ccc(C(F)(F)F)cc3-c3ccncc3)cccc2c1 [Example 2] the IC50 (Nav 1.7 [1]; [3]) was 30 nM and the IC50 (Nav 1.5; [4]) was greater than 30000 nM.
Cn1nccc1-c1cc(Cl)ccc1-c1cccc2cc(S(=O)(=O)Nc3ncns3)ccc12 [Example 25] was tested, and the IC50 (Nav 1.7 [1]; [3]) was 50 nM and the IC50 (Nav 1.5; [4]) was greater than 30000 nM.
Work on Cc1cc(C(F)(F)F)ccc1-c1cccc2cc(S(=O)(=O)Nc3ncns3)ccc12 [Example 11] yielded an IC50 (Nav 1.7 [1]; [3]) of 80 nM and an IC50 (Nav 1.5; [4]) of 5070 nM.
In the case of O=S(=O)(Nc1ncns1)c1ccc2c(-c3ccccc3Cl)cccc2c1 [Example 8], the IC50 (Nav 1.7 [1]; [3]) is reported as 200 nM and the IC50 (Nav 1.5; [4]) is reported as 21300 nM.
In the case of O=S(=O)(Nc1ncns1)c1ccc2c(-c3ccc(C(F)(F)F)cc3-c3cn[nH]c3)nccc2c1 [Example 55, 1-(2-(1H-PYRAZOL-4-YL)-4-(TRIFLUOROMETHYL)PHENYL)-N-(1,2,4-THIADIAZOL-5-YL)ISOQUINOLINE-6-SULFONAMIDE], the IC50 (Nav 1.7 [1]; [3]) is reported as 10 nM and the IC50 (Nav 1.5; [4]) is reported as greater than 30000 nM.
With O=S(=O)(Nc1ncns1)c1ccc2c(-c3ccc(Cl)cc3-c3cn[nH]c3)cccc2c1 [Example 27, 5-(4-CHLORO-2-(1H-PYRAZOL-4-YL)PHENYL)-N-(1,2,4-THIADIAZOL-5-YL)NAPHTHALENE-2 SULFONAMIDE] the IC50 (Nav 1.7 [1]; [3]) was 20 nM and the IC50 (Nav 1.5; [4]) was greater than 30000 nM.
O=S(=O)(Nc1ncns1)c1ccc2c(-c3ccc(F)cc3Cl)cccc2c1 [Example 5] was tested, and the IC50 (Nav 1.7 [1]; [3]) was 170 nM and the IC50 (Nav 1.5; [4]) was 23800 nM.
O=S(=O)(Nc1ncns1)c1ccc2c(-c3ccc(C(F)(F)F)cc3-c3ccncc3)nccc2c1 [Example 53, 1-(2-(PYRIDIN-4-YL)-4-(TRIFLUOROMETHYL)PHENYL)-N-(1,2,4-THIADIAZOL-5-YL)ISOQUINOLINE-6-SULFONAMIDE] showed an IC50 (Nav 1.7 [1]; [3]) of 70 nM and an IC50 (Nav 1.5; [4]) greater than 30000 nM.
Compound Cn1nccc1-c1cc(C(F)(F)F)ccc1-c1nccc2cc(S(=O)(=O)Nc3ncns3)ccc12 [Example 54, 1-(2-(1-METHYL-1H-PYRAZOL-5-YL)-4-(TRIFLUOROMETHYL)PHENYL)-N-(1,2,4-THIADIAZOL-5-YL)ISOQUINOLINE-6-SULFONAMIDE] has an IC50 (Nav 1.7 [1]; [3]) of 40 nM and an IC50 (Nav 1.5; [4]) greater than 30000 nM.
Compound O=S(=O)(Nc1ncns1)c1ccc2c(-c3ccc(C(F)(F)F)cc3Br)cccc2c1 [Example 23] has an IC50 (Nav 1.7 [1]; [3]) of 110 nM and an IC50 (Nav 1.5; [4]) of 20700 nM.
In the case of O=S(=O)(Nc1ncns1)c1ccc2c(-c3ccc(Cl)cc3Cl)cccc2c1 [Example 40], the IC50 (Nav 1.7 [1]; [3]) is reported as 1970 nM and the IC50 (Nav 1.5; [4]) is reported as greater than 30000 nM.
In the case of COc1cc(C(F)(F)F)ccc1-c1ccnc2cc(S(=O)(=O)Nc3nccs3)ccc12 [Example 276, 4-(2-METHOXY-4-(TRIFLUOROMETHYL)PHENYL)-N-(THIAZOL-2-YL)QUINOLINE-7-SULFONAMIDE], the IC50 (Nav 1.7 [2]) is reported as 350 nM, the IC50 (Nav 1.7 [1]; [5]) is reported as 50 nM and the IC50 (Nav 1.5; [6]) is reported as 12300 nM.
In the case of O=S(=O)(Nc1ncns1)c1ccc2c(-c3ccc(F)cc3Br)cccc2c1 [Example 3], the IC50 (Nav 1.7 [1]; [3]) is reported as 90 nM and the IC50 (Nav 1.5; [4]) is reported as 24200 nM.
COc1cc(C(F)(F)F)ccc1-c1cccc2cc(S(=O)(=O)Nc3ncns3)ccc12 [Example 12] was tested, and the IC50 (Nav 1.7 [1]; [3]) was 10 nM and the IC50 (Nav 1.5; [4]) was 11600 nM.
O=S(=O)(Nc1ncns1)c1ccc2c(-c3ccc(C(F)(F)F)cc3Cl)cccc2c1 [Example 29] gave an IC50 (Nav 1.7 [1]; [3]) of 50 nM and an IC50 (Nav 1.5; [4]) greater than 30000 nM.
With O=S(=O)(Nc1ncns1)c1ccc2c(-c3ccc(OC(F)(F)F)cc3Cl)cccc2c1 [Example 4] the IC50 (Nav 1.7 [1]; [3]) was 900 nM and the IC50 (Nav 1.5; [4]) was 10900 nM.
COc1cc(C(F)(F)F)ccc1-c1ncnc2cc(S(=O)(=O)Nc3nccs3)ccc12 [Example 261, 4-(2-methoxy-4-(trifluoromethyl)phenyl)-N-(thiazol-2-yl)quinazoline-7-sulfonamide] was tested, and the IC50 (Nav 1.7 [2]) was 200 nM, the IC50 (Nav 1.7 [1]; [5]) was 10 nM and the IC50 (Nav 1.5; [6]) was greater than 30000 nM.
Cn1nccc1-c1cc(C(F)(F)F)ccc1-c1cccc2cc(S(=O)(=O)Nc3nccs3)ccc12 [Example 47] showed an IC50 (Nav 1.7 [1]; [3]) of 270 nM and an IC50 (Nav 1.5; [4]) of 5820 nM.
O=S(=O)(Nc1ncns1)c1ccc2c(-c3ccccc3)cccc2c1 [Example 9] gave an IC50 (Nav 1.7 [1]; [3]) of 460 nM and an IC50 (Nav 1.5; [4]) of 23800 nM.
In the case of O=S(=O)(Nc1ncns1)c1ccc2c(-c3ccc(Cl)cc3C3=CCNCC3)cccc2c1 [Example 26], the IC50 (Nav 1.7 [1]; [3]) is reported as 20 nM and the IC50 (Nav 1.5) is reported as greater than 30000 nM.
Compound COc1cc(-c2cccc(F)c2)ccc1-c1nccc2cc(S(=O)(=O)Nc3ccncn3)ccc12 [Example 199, 1-(3′-FLUORO-3-METHOXY-[1,1′-BIPHENYL]-4-YL)-N-(PYRIMIDIN-4-YL)ISOQUINOLINE-6-SULFONAMIDE 2,2,2-TRIFLUOROACETATE] has an IC50 (Nav 1.7 [2]) of 156 nM, an IC50 (Nav 1.7 [1]; [5]) of 20 nM and an IC50 (Nav 1.5; [6]) greater than 30000 nM.
O=S(=O)(Nc1nccs1)c1ccc2c(-c3ccc(C(F)(F)F)cc3Cl)nccc2c1 [Example 51, 1-(2-CHLORO-4-(TRIFLUOROMETHYL)PHENYL)-N-(THIAZOL-2-YL)ISOQUINOLINE-6-SULFONAMIDE] was tested, and the IC50 (Nav 1.7 [1]; [3]) was 110 nM and the IC50 (Nav 1.5; [4]) was greater than 30000 nM.
N#Cc1cc(C(F)(F)F)ccc1-c1cccc2cc(S(=O)(=O)Nc3ncns3)ccc12 [Example 22] showed an IC50 (Nav 1.7 [1]; [3]) of 40 nM and an IC50 (Nav 1.5; [4]) greater than 30000 nM.
With COc1cc(C(F)(F)F)ccc1-c1nccc2cc(S(=O)(=O)Nc3ncns3)ccc12 [Example 195, 1-(2-METHOXY-4-(TRIFLUOROMETHYL)PHENYL)-N-(1,2,4-THIADIAZOL-5-YL)ISOQUINOLINE-6-SULFONAMIDE] the IC50 (Nav 1.7 [2]) was 134 nM, the IC50 (Nav 1.7 [1]; [5]) was 10 nM and the IC50 (Nav 1.5; [6]) was greater than 30000 nM.
Compound O=S(=O)(Nc1ncns1)c1ccc2c(-c3ccc(Cl)cc3C(F)(F)F)cccc2c1 [Example 39] has an IC50 (Nav 1.7 [1]; [3]) of 1540 nM and an IC50 (Nav 1.5; [4]) of 7770 nM.
For NC(=O)c1cc(C(F)(F)F)ccc1-c1cccc2cc(S(=O)(=O)Nc3ncns3)ccc12 [Example 32], the IC50 (Nav 1.7 [1]; [3]) was 170 nM and the IC50 (Nav 1.5; [4]) was greater than 30000 nM.
O=S(=O)(Nc1ncns1)c1ccc2c(-c3ccc(C(F)(F)F)cc3Br)nccc2c1 [Example 50, 1-(2-BROMO-4-(TRIFLUOROMETHYL)PHENYL)-N-(1,2,4-THIADIAZOL-5-YL)ISOQUINOLINE-6-SULFONAMIDE] was tested, and the IC50 (Nav 1.7 [1]; [3]) was 30 nM and the IC50 (Nav 1.5; [4]) was greater than 30000 nM.
COc1cc(C(F)(F)F)ccc1-c1nccc2cc(S(=O)(=O)Nc3nc(C#N)cs3)ccc12 [Example 421, N-(4-CYANOTHIAZOL-2-YL)-1-(2-METHOXY-4-(TRIFLUOROMETHYL)PHENYL)ISOQUINOLINE-6-SULFONAMIDE] gave an IC50 (Nav 1.7 [2]) of 786 nM and an IC50 (Nav 1.5; [6]) greater than 30000 nM.
O=S(=O)(Nc1ncns1)c1ccc2c(N3CCOC(c4ccccc4)C3)cccc2c1 (single isomer, unassigned) [14 (isomer 2), 5-(2-phenylmorpholino)-N-(1,2,4-thiadiazol-5-yl)naphthalene-2-sulfonamide] was tested, and the IC50 (Nav 1.7 [1]; [3]) was 1800 nM and the IC50 (Nav 1.5; [4]) was greater than 30000 nM.
For N#CCOc1cc(C(F)(F)F)ccc1-c1nccc2cc(S(=O)(=O)Nc3nccs3)ccc12 [Example 374, 1-(2-(CYANOMETHOXY)-4-(TRIFLUOROMETHYL)PHENYL)-N-(THIAZOL-2-YL)ISOQUINOLINE-6-SULFONAMIDE], the IC50 (Nav 1.7 [2]) was 309 nM and the IC50 (Nav 1.5; [6]) was greater than 30000 nM.
